In PubChem BioAssay AID1259407 (Chemical Carcinogenesis Research Information System (CCRIS), 2018):
Activity calls are given as the source filed them. No rule for the calls is given here.

Test system: CCRIS mutagenicity, Ames/micronucleus/aberration tests
Assay: CCRIS mutagenicity studies

Nc1ccc(N)cc1
mutagenic call (End Point: IN VITRO CHROMOSOMAL ABERRATIONS, Test System: CHL CELLS, Metabolic Activation: NONE): active; positive (structural changes)
mutagenic call (End Point: IN VITRO CHROMOSOMAL ABERRATIONS, Test System: CHL CELLS, Metabolic Activation: RAT, LIVER, S-9, SODIUM PHENOBARBITAL AND 5,6-BENZOFLAVONE): active; positive (structural changes)
mutagenic call (End Point: IN VITRO MICRONUCLEUS, Test System: CHL/IU CELLS, Metabolic Activation: RAT, LIVER, S-9, PHENOBARBITAL AND 5,6-BENZOFLAVONE): active; positive
mutagenic call (End Point: In vitro micronucleus, Test System: Human lymphocytes, Metabolic Activation: Rat, Liver, S-9, Aroclor 1254): active; positive
mutagenic call (Test System: AMES SALMONELLA TYPHIMURIUM, Strain/Indicator: TA98(NR), Metabolic Activation: NONE, Method: PREINCUBATION): inactive; negative
mutagenic call (Test System: AMES SALMONELLA TYPHIMURIUM, Strain/Indicator: TA98(NR), Metabolic Activation: RAT, LIVER, S-9, AROCLOR 1254, Method: PREINCUBATION): active; positive
mutagenic call (Test System: AMES SALMONELLA TYPHIMURIUM, Strain/Indicator: TA98, Metabolic Activation: HAMSTER, LIVER, S-9, AROCLOR 1254 (30%), Method: PREINCUBATION): active; positive
mutagenic call (Test System: AMES SALMONELLA TYPHIMURIUM, Strain/Indicator: TA98, Metabolic Activation: NONE): inactive; negative
mutagenic call (Test System: AMES SALMONELLA TYPHIMURIUM, Strain/Indicator: TA98, Metabolic Activation: NONE, Method: PREINCUBATION): inactive; negative
mutagenic call (Test System: AMES SALMONELLA TYPHIMURIUM, Strain/Indicator: TA98, Metabolic Activation: NONE, Method: STANDARD PLATE): inactive; negative
mutagenic call (Test System: AMES SALMONELLA TYPHIMURIUM, Strain/Indicator: TA98, Metabolic Activation: PEA APICAL BUD S-9, Method: PREINCUBATION): inactive; negative
mutagenic call (Test System: AMES SALMONELLA TYPHIMURIUM, Strain/Indicator: TA98, Metabolic Activation: PEA APICAL BUD S-9, Method: STANDARD PLATE): inactive; negative
mutagenic call (Test System: AMES SALMONELLA TYPHIMURIUM, Strain/Indicator: TA98, Metabolic Activation: PLANT (PERSEA AMERICANA) S-117, Method: STANDARD PLATE): inactive; negative
mutagenic call (Test System: AMES SALMONELLA TYPHIMURIUM, Strain/Indicator: TA98, Metabolic Activation: PLANT (ZEA MAYS) S-9, Method: STANDARD PLATE): inactive; negative
mutagenic call (Test System: AMES SALMONELLA TYPHIMURIUM, Strain/Indicator: TA98, Metabolic Activation: RAT LIVER S-9, PHENOBARBITAL AND BETA-NAPHTHOFLAVONE, Method: PREINCUBATION): active; positive
mutagenic call (Test System: AMES SALMONELLA TYPHIMURIUM, Strain/Indicator: TA98, Metabolic Activation: RAT, LIVER, S-9, AROCLOR 1254): active; positive
mutagenic call (Test System: AMES SALMONELLA TYPHIMURIUM, Strain/Indicator: TA98, Metabolic Activation: RAT, LIVER, S-9, AROCLOR 1254 (30%), Method: PREINCUBATION): active; positive
mutagenic call (Test System: AMES SALMONELLA TYPHIMURIUM, Strain/Indicator: TA100(NR), Metabolic Activation: NONE, Method: PREINCUBATION): active; positive
mutagenic call (Test System: AMES SALMONELLA TYPHIMURIUM, Strain/Indicator: TA100(NR), Metabolic Activation: RAT, LIVER, S-9, AROCLOR 1254, Method: PREINCUBATION): inactive; negative
mutagenic call (Test System: AMES SALMONELLA TYPHIMURIUM, Strain/Indicator: TA100, Metabolic Activation: HAMSTER, LIVER, S-9, AROCLOR 1254 (30%), Method: PREINCUBATION): inactive; negative
mutagenic call (Test System: AMES SALMONELLA TYPHIMURIUM, Strain/Indicator: TA100, Metabolic Activation: NONE, Method: PREINCUBATION): inactive; negative
mutagenic call (Test System: AMES SALMONELLA TYPHIMURIUM, Strain/Indicator: TA100, Metabolic Activation: NONE, Method: STANDARD PLATE): inactive; negative
mutagenic call (Test System: AMES SALMONELLA TYPHIMURIUM, Strain/Indicator: TA100, Metabolic Activation: PEA APICAL BUD S-9, Method: PREINCUBATION): inactive; negative
mutagenic call (Test System: AMES SALMONELLA TYPHIMURIUM, Strain/Indicator: TA100, Metabolic Activation: PEA APICAL BUD S-9, Method: STANDARD PLATE): inactive; negative
mutagenic call (Test System: AMES SALMONELLA TYPHIMURIUM, Strain/Indicator: TA100, Metabolic Activation: PLANT (PERSEA AMERICANA) S-117, Method: STANDARD PLATE): inactive; negative
mutagenic call (Test System: AMES SALMONELLA TYPHIMURIUM, Strain/Indicator: TA100, Metabolic Activation: PLANT (ZEA MAYS) S-9, Method: STANDARD PLATE): inactive; negative
mutagenic call (Test System: AMES SALMONELLA TYPHIMURIUM, Strain/Indicator: TA100, Metabolic Activation: RAT LIVER S-9, PHENOBARBITAL AND BETA-NAPHTHOFLAVONE, Method: PREINCUBATION): inactive; negative
mutagenic call (Test System: AMES SALMONELLA TYPHIMURIUM, Strain/Indicator: TA100, Metabolic Activation: RAT, LIVER, S-9, AROCLOR 1254 (30%), Method: PREINCUBATION): inactive; negative
mutagenic call (Test System: AMES SALMONELLA TYPHIMURIUM, Strain/Indicator: TA100, Metabolic Activation: RAT, LIVER, S-9, AROCLOR 1254, Method: PREINCUBATION): inactive; negative
mutagenic call (Test System: AMES SALMONELLA TYPHIMURIUM, Strain/Indicator: TA100, Metabolic Activation: RAT, LIVER, S-9, AROCLOR 1254, Method: STANDARD PLATE): inactive; negative
mutagenic call (Test System: AMES SALMONELLA TYPHIMURIUM, Strain/Indicator: TA102, Metabolic Activation: NONE, Method: STANDARD PLATE): inactive; negative
mutagenic call (Test System: AMES SALMONELLA TYPHIMURIUM, Strain/Indicator: TA1535, Metabolic Activation: NONE, Method: PREINCUBATION): inactive; negative
mutagenic call (Test System: AMES SALMONELLA TYPHIMURIUM, Strain/Indicator: TA1535, Metabolic Activation: RAT LIVER S-9, PHENOBARBITAL AND BETA-NAPHTHOFLAVONE, Method: PREINCUBATION): inactive; negative
mutagenic call (Test System: AMES SALMONELLA TYPHIMURIUM, Strain/Indicator: TA1537, Metabolic Activation: NONE, Method: PREINCUBATION): inactive; negative
mutagenic call (Test System: AMES SALMONELLA TYPHIMURIUM, Strain/Indicator: TA1537, Metabolic Activation: RAT LIVER S-9, PHENOBARBITAL AND BETA-NAPHTHOFLAVONE, Method: PREINCUBATION): inactive; negative
mutagenic call (Test System: AMES SALMONELLA TYPHIMURIUM, Strain/Indicator: TA1538, Metabolic Activation: RAT, LIVER, S-9, PHENOBARBITAL, Method: STANDARD PLATE): active; positive
mutagenic call (Test System: AMES SALMONELLA TYPHIMURIUM, Strain/Indicator: TA2638, Metabolic Activation: NONE, Method: STANDARD PLATE): inactive; negative
mutagenic call (Test System: AMES SALMONELLA TYPHIMURIUM, Strain/Indicator: YG1024, Metabolic Activation: PLANT (PERSEA AMERICANA) S-117, Method: STANDARD PLATE): inactive; negative
mutagenic call (Test System: AMES SALMONELLA TYPHIMURIUM, Strain/Indicator: YG1024, Metabolic Activation: PLANT (ZEA MAYS) S-9, Method: STANDARD PLATE): inactive; negative
mutagenic call (Test System: AMES SALMONELLA TYPHIMURIUM, Strain/Indicator: YG1029, Metabolic Activation: PLANT (PERSEA AMERICANA) S-117, Method: STANDARD PLATE): inactive; negative
mutagenic call (Test System: AMES SALMONELLA TYPHIMURIUM, Strain/Indicator: YG1029, Metabolic Activation: PLANT (ZEA MAYS) S-9, Method: STANDARD PLATE): inactive; negative
mutagenic call (Test System: Ames Salmonella typhimurium, Strain/Indicator: TA98, Metabolic Activation: None, Method: Standard plate): inactive; negative
mutagenic call (Test System: Ames Salmonella typhimurium, Strain/Indicator: TA98, Metabolic Activation: Rat, Liver, S-9, Aroclor 1254 (10%), Method: Preincubation): active; positive
mutagenic call (Test System: Ames Salmonella typhimurium, Strain/Indicator: TA98, Metabolic Activation: Rat, Liver, S-9, Aroclor 1254 (10%), Method: Standard plate): active; positive
mutagenic call (Test System: Ames Salmonella typhimurium, Strain/Indicator: TA100, Metabolic Activation: None, Method: Preincubation): inactive; negative
mutagenic call (Test System: Ames Salmonella typhimurium, Strain/Indicator: TA100, Metabolic Activation: None, Method: Standard plate): inactive; negative
mutagenic call (Test System: Ames Salmonella typhimurium, Strain/Indicator: TA100, Metabolic Activation: Rat, Liver, S-9, Aroclor 1254 (10%), Method: Preincubation): inactive; negative
mutagenic call (Test System: Ames Salmonella typhimurium, Strain/Indicator: TA100, Metabolic Activation: Rat, Liver, S-9, Aroclor 1254 (10%), Method: Standard plate): inactive; negative
mutagenic call (Test System: Ames Salmonella typhimurium, Strain/Indicator: TA102, Metabolic Activation: None, Method: Preincubation): inactive; negative
mutagenic call (Test System: Ames Salmonella typhimurium, Strain/Indicator: TA102, Metabolic Activation: None, Method: Standard plate): inactive; negative
mutagenic call (Test System: Ames Salmonella typhimurium, Strain/Indicator: TA102, Metabolic Activation: Rat, Liver, S9, Aroclor 1254, Method: Preincubation): inactive; negative
mutagenic call (Test System: Ames Salmonella typhimurium, Strain/Indicator: TA102, Metabolic Activation: Rat, Liver, S-9, Aroclor 1254 (10%), Method: Preincubation): inactive; negative
mutagenic call (Test System: Ames Salmonella typhimurium, Strain/Indicator: TA102, Metabolic Activation: Rat, Liver, S-9, Aroclor 1254 (10%), Method: Standard plate): inactive; negative
mutagenic call (Test System: Ames Salmonella typhimurium, Strain/Indicator: TA104, Metabolic Activation: None, Method: Preincubation): inactive; negative
mutagenic call (Test System: Ames Salmonella typhimurium, Strain/Indicator: TA104, Metabolic Activation: Rat, Liver, S9, Aroclor 1254, Method: Preincubation): inactive; negative
mutagenic call (Test System: Ames Salmonella typhimurium, Strain/Indicator: TA1535, Metabolic Activation: None, Method: Preincubation): inactive; negative
mutagenic call (Test System: Ames Salmonella typhimurium, Strain/Indicator: TA1535, Metabolic Activation: None, Method: Standard plate): inactive; negative
mutagenic call (Test System: Ames Salmonella typhimurium, Strain/Indicator: TA1535, Metabolic Activation: Rat, Liver, S-9, Aroclor 1254 (10%), Method: Preincubation): inactive; negative
mutagenic call (Test System: Ames Salmonella typhimurium, Strain/Indicator: TA1535, Metabolic Activation: Rat, Liver, S-9, Aroclor 1254 (10%), Method: Standard plate): inactive; negative
mutagenic call (Test System: Ames Salmonella typhimurium, Strain/Indicator: TA1537, Metabolic Activation: None, Method: Preincubation): inactive; negative
mutagenic call (Test System: Ames Salmonella typhimurium, Strain/Indicator: TA 1537, Metabolic Activation: None, Method: Standard plate): inactive; negative
mutagenic call (Test System: Ames Salmonella typhimurium, Strain/Indicator: TA1537, Metabolic Activation: Rat, Liver, S-9, Aroclor 1254 (10%), Method: Preincubation): inactive; negative
mutagenic call (Test System: Ames Salmonella typhimurium, Strain/Indicator: TA1537, Metabolic Activation: Rat, Liver, S-9, Aroclor 1254 (10%), Method: Standard plate): inactive; negative
mutagenic call (Test System: CHINESE HAMSTER OVARY, Strain/Indicator: CHO-K1-BH4 (HGPRT)/6-THIOGUANINE, Metabolic Activation: NONE): inactive; negative
mutagenic call (Test System: CHINESE HAMSTER OVARY, Strain/Indicator: CHO-K1-BH4 (HGPRT)/6-THIOGUANINE, Metabolic Activation: S-9): inactive; negative
mutagenic call (Test System: E. COLI, Strain/Indicator: WP2 (PKM101), Metabolic Activation: NONE, Method: STANDARD PLATE): inactive; negative
mutagenic call (Test System: E. COLI, Strain/Indicator: WP2 UVRA (PKM101), Metabolic Activation: NONE, Method: STANDARD PLATE): inactive; negative
mutagenic call (Test System: E.COLI, Strain/Indicator: WP2UVRA, Metabolic Activation: RAT LIVER S-9, PHENOBARBITAL AND BETA-NAPHTHOFLAVONE, Method: PREINCUBATION): inactive; negative
mutagenic call (Test System: MOUSE LYMPHOMA, Strain/Indicator: L5178Y (TK+/TK-), Metabolic Activation: NONE, Method: SUSPENSION/PLATE): active; positive
mutagenic call (Test System: MOUSE LYMPHOMA, Strain/Indicator: L5178Y (TK+/TK-), Metabolic Activation: RAT, LIVER, S-9, AROCLOR 1254, Method: SUSPENSION/PLATE): active; positive
mutagenic call (Test System: Mouse lymphoma, Strain/Indicator: L5178Y (TK+/TK-), Metabolic Activation: None, Method: Suspension/plate): inactive; negative
mutagenic call (Test System: Mouse lymphoma, Strain/Indicator: L5178Y (TK+/TK-), Metabolic Activation: Rat, Liver, S-9, Aroclor 1254, Method: Suspension/plate): inactive; negative
